The results in this text go back to PubChem BioAssay AID652047 (Broad Institute, 2013).

This test has as its system P. falciparum 3D7 in RBCs, SYBR Green DNA fluorescence. In words: growth inhibition of P. falciparum 3D7, dose response, 3D7 strain, red blood cells, SYBR Green, cherry-picked (AID 652047).

On to `Oc1c(I)cc(Cl)c2cccnc12`, for which the AC35 was 2.33 µM.
On to `O=[N+]([O-])c1cc(C(F)(F)F)ccc1NCCc1c[nH]c2ccc(O)cc12`, for which the AC35 is 28.3 µM.
`CC1(C(=O)OCC(=O)Nc2ccc3ccccc3c2)CC1(Cl)Cl` (centres undefined): the AC35 is 42.6 µM.
For the compound `O=C1c2cccc(Cl)c2C(=O)c2c1cccc2N1CCCC1`, the AC35 was 22.7 µM.
Take `CC(NC(=S)NC1CCC(C(C)(C)C)CC1)c1ccccc1` (centres undefined): the AC35 was 10.2 µM.
Turning to `COc1cnc(-c2ccccn2)nc1Sc1ccc(C)cc1`, the AC35 is 1.73 µM.
The result for `COC(=O)c1cccc2c1-c1ccccc1/C2=N/O` reads 34.7 µM.
With `O=[N+]([O-])c1ccc2c(OCc3nnc(-c4ccccc4Br)o3)ncnc2c1` the figure was 25.5 µM; with `O=C(Oc1c(Cl)cc(Cl)c2cccnc12)c1cccs1`, 17.7 µM.
`CC1CCc2c(C(=O)Nc3ccccn3)csc2C1` (centres undefined): the AC35 was 28.7 µM.
Turning to `CC1=CC(=O)C=C(C)C1=NOS(=O)(=O)c1ccccc1`, the AC35 is 17.4 µM.
Consider `CC(=O)NC(c1cccc([N+](=O)[O-])c1)c1ccc2cccnc2c1O` (centres undefined), for which the AC35 was 2 µM.
With `Cc1csc(NC(=O)C(C)Oc2ccc(Cl)cc2C)n1` (centres undefined) the figure was 38.3 µM; with `CN(C)c1nc(SCc2ccc(Cl)cc2)nc2c1CCCC2`, 40.2 µM.
Regarding `CCCCCCn1c(=O)c(C(=O)Nc2ncccc2C)c(O)c2ccccc21`, the AC35 was 2.57 µM.
With `Fc1ccc(CCNC(=S)Nc2ccc(F)c(Cl)c2)cc1` the figure was 15.9 µM.
As for `O=C(NCCC1=CCCCC1)c1c(O)nc2sccn2c1=O`, the AC35 is 17 µM.
Turning to `Cc1cccc2sc(NNC(=O)c3ccc(S(=O)(=O)N4CCCC(C)C4)cc3)nc12` (centres undefined), the AC35 was 3.46 µM.
As for `CCN(CC)C(=O)CSc1ncnc2sc(-c3ccccc3)cc12`, the AC35 is 35.6 µM.
The result for `O=c1cc(CSc2ccc(Cl)cc2)nc(-c2ccccn2)[nH]1` reads 1.93 µM.
Take `Cc1cccc(Oc2nc(-c3ccccn3)nc3ccccc23)c1`: the AC35 is 3.89 µM.
Turning to `Oc1ccc(/C=N/Nc2ccc(C(F)(F)F)cn2)c(O)c1`, the AC35 is 5.21 µM.
Consider `Cc1ccc(Nc2cc(C)nn2-c2nc(C)cc(C)n2)cc1`, for which the AC35 is 2.38 µM.
Regarding `O=C(c1ccccc1)c1coc2c1C(=O)c1ccccc1C2=O`, the AC35 is 3.82 µM.
For the compound `CC(C)C(=O)NC(c1cccc([N+](=O)[O-])c1)c1ccc2cccnc2c1O` (centres undefined), the AC35 was 1.01 µM.
Take `O=C(N/N=C/c1ccc[nH]1)c1sc2ccccc2c1Cl`: the AC35 is 8.77 µM.
The result for `O=C(NOC(=O)c1ccccc1)c1ccccc1` reads 20.9 µM.
The result for `O=C(Nc1nnc(-c2ccccc2)o1)c1ccc(Cl)cc1` reads 12.4 µM.
As for `CCC1=NN(C(=O)c2cccc(Br)c2)C(O)(c2ccc(Br)cc2)C1` (centres undefined), the AC35 was 14.7 µM.
Consider `Clc1ccccc1C(c1ccccc1)(c1ccccc1)n1ccnc1`, for which the AC35 was 0.448 µM.
Turning to `CC1CCN(c2nc(-c3ccncc3)nc3ccccc23)CC1`, the AC35 was 4.32 µM.
Consider `C=CCNc1nc(-c2ccccn2)nnc1-c1ccccc1`, for which the AC35 was 1.21 µM.
Regarding `COc1ccc(Sc2nc(-c3ccccn3)ncc2OC)cc1`, the AC35 is 1.26 µM.
With `c1ccc(CSc2ccc(-c3ccccn3)nn2)nc1` the figure was 19 µM; with `Cc1[nH]n(-c2ccccc2)c(=O)c1/C=N/Nc1nncc(-c2ccccc2)n1`, 1.2 µM.
In the case of `COc1cc(NS(=O)(=O)c2ccc(C)cc2)c2ncccc2c1`, the AC35 was 6.47 µM.
With `C=CCOC(Cn1ccnc1)c1ccc(Cl)cc1Cl` (centres undefined) the figure was 6.08 µM; with `CCC(NC(=S)NCc1ccc(F)cc1)c1ccc(C(C)C)cc1` (centres undefined), 11.8 µM; with `CCc1ccc(OCc2n[nH]c(=S)n2Cc2ccccc2)cc1`, 32 µM.
Turning to `CCCCNc1c(-c2cccc(-c3ccc(OC)cc3)c2)nc2ccc(C)cn12`, the AC35 was 2 µM.
The result for `CN(C)c1ccc(C=c2c3ccccc3n3c2c2c([n+]3C)CCCC2)cc1` reads 0.15 µM.
`C[C@@]12CCC3[C@@](CCC4[C@@]3(C)CCC[C@@]4(C)C(=O)NCc3ccccc3)(CC1=O)C2` (some centres undefined): the AC35 was 30.2 µM.
On to `O=Cc1cc(N=Nc2ccccc2Cl)ccc1O`, for which the AC35 was 2.77 µM.
With `Nc1cc2nc3ccccc3oc-2cc1=O`, the AC35 was 2.14 µM.
`CCCCCCC(Cl)(Cn1ccnc1)c1ccccc1` (centres undefined): the AC35 was 4.06 µM.
For the compound `O=[N+]([O-])c1ccc(Sc2cccc[n+]2[O-])c2nonc12`, the AC35 was 0.657 µM.
The result for `CC/C(=N/NC(=O)c1ccccc1O)c1c(C)[nH]n(-c2ccccc2)c1=O` reads 34.9 µM; that for `O=C(COc1ccc([N+](=O)[O-])cc1)Nc1nc(-c2ccccn2)cs1`, 6.63 µM.
For the compound `CCOC(=O)c1ccc(NC(=S)N(Cc2cccnc2)Cc2ccco2)cc1`, the AC35 was 21.7 µM.
Consider `CC(C)=CCc1c(O)ccc(C(=O)Cc2ccccc2)c1O`, for which the AC35 was 16.4 µM.
As to `C=CCn1c(-c2cc(-c3ccc(C)cc3)nc3ccccc23)n[nH]c1=S`, the AC35 was 15.5 µM.
As to `Cc1c(C(=O)O)cccc1-c1ccc(/C=N/Nc2ccc(Br)cc2)o1`, the AC35 was 20.2 µM.
As to `COc1ccc(-c2oc3ccccc3c2C#Cc2cncn2C)cc1`, the AC35 is 0.603 µM.
With `Cc1cc(C(=O)COC(=O)Cc2n[nH]c(=O)c3ccccc23)c(C)n1-c1cccc(C(F)(F)F)c1` the figure was 6.57 µM.
With `Cc1ccc(NC(=S)c2nc3ccccc3[nH]2)c(C)c1` the figure was 5.34 µM.
For `Oc1ccc(N=Nc2ccc3c(c2)OCCO3)c2cccnc12`, the AC35 is 0.706 µM.
With `CC(C)N1CCN(c2ccc(OC[C@H]3CO[C@](Cn4cncn4)(c4ccc(Cl)cc4Cl)O3)cc2)CC1` the figure was 5.3 µM; with `Cc1nc2ccc(C(C(F)(F)F)(C(F)(F)F)C(F)(F)F)cc2[nH]1`, 17.8 µM; with `O=C(NCC1CC1(Cl)Cl)Nc1ccc(Cl)c(Cl)c1` (centres undefined), 8.82 µM.
`O=C(CSc1ccc(-c2ccccn2)nn1)NCc1ccc(F)cc1`: the AC35 was 28.7 µM.
Regarding `CCCCC(=O)NC(=S)NNC(=O)CCc1ccccc1`, the AC35 was 20.8 µM.
The result for `CC(C)(C)n1nc(Cc2cccc3ccccc23)c2c(N)ncnc21` reads 25.7 µM; that for `Cc1nc(-c2ccccn2)nc(N(C)c2ccccc2)c1Cl`, 3.26 µM; that for `Cc1ccc(-c2c3c(nc4sc(C(N)=O)c(N)c24)CCCC3)o1`, 42.6 µM.
Consider `CCCCNc1c(-c2cccc(Sc3ccc(OC)cc3)c2)nc2ccccn12`, for which the AC35 is 15.3 µM.
With `Clc1ccc(C2=NCCN2)cc1` the figure was 5.64 µM; with `O=C(Nc1nnc(SCc2ccc(F)cc2)s1)c1ccccn1`, 2.17 µM; with `O=P(Nc1cccnc1)(Oc1ccccc1Cl)Oc1ccccc1Cl`, 40.7 µM.
`CCn1c2ccc(C)cc2c2nc3cc(C(=O)O)ccc3nc21`: the AC35 is 42.6 µM.
In the case of `Cc1ccccc1Oc1nc(-c2ccccn2)nc2ccccc12`, the AC35 was 2.17 µM.
As to `CCOC(=O)N1C(=O)C2(CCCCC2)N(c2ccccc2Cl)C1=S`, the AC35 is 12.8 µM.
Consider `CN1CCN(C(=O)c2cc(COc3ccc(F)cc3Cl)on2)CC1c1ccccc1` (centres undefined), for which the AC35 was 38.8 µM.
With `CCC(C)Sc1cccc(-c2nc3ccccn3c2NCc2ccccc2)c1` (centres undefined), the AC35 is 16.8 µM.
For the compound `O=C1c2ccccc2-n2c1nc1ccccc1c2=O`, the AC35 was 0.181 µM.
With `NC(=Nc1nc(-c2ccccn2)cc2ccccc12)c1ccccn1` the figure was 0.0527 µM; with `Cc1cccc(NC(=S)NC(C)CCc2ccccc2)c1` (centres undefined), 5.69 µM.
Regarding `O=c1c(O)c(-c2ccccc2)oc2ccccc12`, the AC35 was 31.1 µM.
The result for `COc1ccc(O)c(C(=O)CC(=O)c2ccccc2C)c1` reads 8.89 µM; that for `CNc1ccc2oc(C[C@H]3O[C@@]4(CC[C@H]3C)O[C@H]([C@H](C)C(=O)c3ccc[nH]3)[C@H](C)C[C@H]4C)nc2c1C(=O)O`, 1.01 µM; that for `Cc1ccc(NC(=O)CN(C)C(=O)c2cccnc2Nc2cccc(C(F)(F)F)c2)cc1`, 7.58 µM.
Turning to `O=S(=O)(Nc1ccccc1)c1ccc(Oc2ncc(C(F)(F)F)cc2Cl)cc1`, the AC35 is 28.7 µM.
Consider `CC(C)(C)C(O)C(Cc1ccccc1Cl)n1cncn1` (centres undefined), for which the AC35 is 25.7 µM.
The result for `O=C(Nc1nnc(-c2cccs2)o1)c1cccc(Oc2ccccc2)c1` reads 23 µM; that for `CCc1cc(SC#N)cc(C)c1NC(=O)CCl`, 7.77 µM.
The result for `O=C(COc1ccccc1F)Nc1nc(-c2ccccn2)cs1` reads 10.5 µM.
Take `O=S1OC(c2ccccc2)c2cc(Cl)ccc21` (centres undefined): the AC35 was 11.3 µM.
Regarding `CCCC(C)Sc1nc2c([nH]1)c(=S)n(C)c(=O)n2C` (centres undefined), the AC35 was 4.74 µM.
`CCCCOC(=O)/C=C/c1ccc(OC(=O)OC)c(OC(=O)OC)c1`: the AC35 was 14.7 µM.
As for `CCc1ccc(CN(C)C(=O)c2cc(COc3cccc(C(F)(F)F)c3)on2)nc1`, the AC35 is 24.6 µM.
With `O=C(CCCSc1ccccc1)Nc1nc(-c2ccccn2)cs1`, the AC35 was 6.69 µM.
With `O=C(Nc1ccc(Cl)cc1C(=O)Nc1ccc(Br)cn1)c1ccco1`, the AC35 is 15.1 µM.
For the compound `CCCCCCSc1ccc(-c2nc3ccccn3c2NCCCC)cc1`, the AC35 is 12.2 µM.
For the compound `COc1ccc2[nH]c(=O)c(CN(Cc3cccnc3)C(=O)Nc3ccccc3)cc2c1`, the AC35 is 17.5 µM.
On to `CC(C)N1CCN(c2ccc(OCC3COC(Cn4cncn4)(c4ccc(Cl)cc4Cl)O3)cc2)CC1` (centres undefined), for which the AC35 is 3.77 µM.
Turning to `CCCCCCCCCCOC(=O)Cn1c(COc2ccccc2OC)[n+](C)c2ccccc21`, the AC35 was 0.401 µM.
In the case of `CCCCCCCc1ccc(-c2ccc(O)cc2)nc1`, the AC35 was 7.43 µM.
As for `Oc1c(C(Nc2cccc(C(F)(F)F)c2)c2ccncc2)ccc2cccnc12` (centres undefined), the AC35 is 0.879 µM.
In the case of `CC(=O)Nc1cccc(NC(=O)CSc2ccc(-c3ccccn3)nn2)c1`, the AC35 was 14 µM.
As to `COc1ccc(/C=N/Nc2cc(C)nc(-n3nc(C)cc3C)n2)cc1`, the AC35 was 1.06 µM.
For the compound `COc1cccc(/C=N/NC(=O)c2nc(-c3ccccc3)cc(-c3ccccc3)n2)c1O`, the AC35 was 6.29 µM.
The result for `Cc1ccc(C)c(/C=C/C(=O)c2ccccc(=O)c2O)c1` reads 7.91 µM; that for `Cc1cc(C)c(C(=O)CC(=O)c2cccnc2)c(C)c1`, 6.77 µM.
For `CC(=O)Oc1ccc(OC(C)=O)c(SCCCCCCl)c1`, the AC35 is 4.82 µM.
Consider `Cc1ccc2c(C)c3ccc4ccccc4c3c[n+]2c1`, for which the AC35 is 0.0368 µM.
